Measurements taken from patent US20210255193A1, “LYSINE REACTIVE PROBES AND USES THEREOF” (The Scripps Research Institute, priority 2017, published 2021).

Legend:
Experiment in all cases: competitive isoTOP-ABPP
[1] = biological target: T1, NONO Non-POU domain-containing octamer-binding protein (Homo sapiens, UniProt Q15233); settings: for R value (DMSO/fragment) for probe 1 labeling: Q15233_K467; for isoTOP-ABPP ratio (R) at liganded lysine Q15233_K467: sol, 231
T1 construct: isoTOP-ABPP experiments performed in cell lysates (in vitro); endogenous in cells; host or cells: soluble proteome of human cancer cell lines (MDA-MB-231; Ramos and Jurkat also prepared)
T1 sequence (Q15233 1-471): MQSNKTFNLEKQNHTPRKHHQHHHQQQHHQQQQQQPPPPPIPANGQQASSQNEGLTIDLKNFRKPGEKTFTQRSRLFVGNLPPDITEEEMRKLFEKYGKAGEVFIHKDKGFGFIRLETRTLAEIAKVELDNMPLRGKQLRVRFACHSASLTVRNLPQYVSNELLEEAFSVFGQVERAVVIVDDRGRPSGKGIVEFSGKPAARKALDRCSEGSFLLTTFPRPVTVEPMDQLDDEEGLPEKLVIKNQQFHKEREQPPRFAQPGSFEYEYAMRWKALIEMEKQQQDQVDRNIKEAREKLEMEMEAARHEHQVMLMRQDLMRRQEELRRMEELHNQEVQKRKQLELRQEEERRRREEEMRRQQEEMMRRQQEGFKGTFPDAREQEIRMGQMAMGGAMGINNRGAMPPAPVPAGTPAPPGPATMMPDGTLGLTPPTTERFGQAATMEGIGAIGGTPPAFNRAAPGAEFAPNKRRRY
Method in brief: (§1)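 Cell lysate treated in vitro with fragments (50 μM activated esters, 100 μM guanidinylating agents) or DMSO, labelled 1 h at ambient temperature with 0.1 mM STP-alkyne, CuAAC-tagged with light/heavy TEV tags, analysed by MS. R = DMSO/compound MS1 peak-area ratio; lysines with R≥4 called liganded.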

[2] = biological target: T2, RPS10 40S ribosomal protein S10 (Homo sapiens, UniProt P46783); format: binding; settings: for R value (DMSO/fragment) for probe 1 labeling: P46783_K139; for isoTOP-ABPP ratio (R) at liganded lysine P46783_K139: sol, 231
T2 construct: isoTOP-ABPP experiments performed in cell lysates (in vitro); endogenous in cells; host or cells: soluble proteome of human cancer cell lines (MDA-MB-231; Ramos and Jurkat also prepared)
Method in brief: as §1

[3] = biological target: T3, GABARAPL2 Gamma-aminobutyric acid receptor-associated protei (Homo sapiens, UniProt P60520); format: binding; settings: for R value (DMSO/fragment) for probe 1 labeling: P60520_K46; for isoTOP-ABPP ratio (R) at liganded lysine P60520_K46: sol, 231
T3 construct: isoTOP-ABPP experiments performed in cell lysates (in vitro); endogenous in cells; host or cells: soluble proteome of human cancer cell lines (MDA-MB-231, Ramos, Jurkat)
T3 sequence (P60520 1-116 limits assumed): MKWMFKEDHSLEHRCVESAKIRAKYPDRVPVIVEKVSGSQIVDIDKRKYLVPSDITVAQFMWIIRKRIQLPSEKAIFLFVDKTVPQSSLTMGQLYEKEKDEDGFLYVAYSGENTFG
Method in brief: as §1

[4] = biological target: T4, NLN Neurolysin, mitochondrial (Homo sapiens, UniProt Q9BYT8); format: binding; settings: 50 uM, in vitro; for R value (DMSO/fragment) for probe 1 labeling: Q9BYT8_K253; for isoTOP-ABPP ratio (R) at liganded lysine Q9BYT8_K253: sol, 231
T4 construct: isoTOP-ABPP experiments performed in cell lysates (in vitro); endogenous in cells; host or cells: soluble proteome of human cancer cell lines (MDA-MB-231; Ramos and Jurkat also prepared)
T4 sequence (Q9BYT8 38-704): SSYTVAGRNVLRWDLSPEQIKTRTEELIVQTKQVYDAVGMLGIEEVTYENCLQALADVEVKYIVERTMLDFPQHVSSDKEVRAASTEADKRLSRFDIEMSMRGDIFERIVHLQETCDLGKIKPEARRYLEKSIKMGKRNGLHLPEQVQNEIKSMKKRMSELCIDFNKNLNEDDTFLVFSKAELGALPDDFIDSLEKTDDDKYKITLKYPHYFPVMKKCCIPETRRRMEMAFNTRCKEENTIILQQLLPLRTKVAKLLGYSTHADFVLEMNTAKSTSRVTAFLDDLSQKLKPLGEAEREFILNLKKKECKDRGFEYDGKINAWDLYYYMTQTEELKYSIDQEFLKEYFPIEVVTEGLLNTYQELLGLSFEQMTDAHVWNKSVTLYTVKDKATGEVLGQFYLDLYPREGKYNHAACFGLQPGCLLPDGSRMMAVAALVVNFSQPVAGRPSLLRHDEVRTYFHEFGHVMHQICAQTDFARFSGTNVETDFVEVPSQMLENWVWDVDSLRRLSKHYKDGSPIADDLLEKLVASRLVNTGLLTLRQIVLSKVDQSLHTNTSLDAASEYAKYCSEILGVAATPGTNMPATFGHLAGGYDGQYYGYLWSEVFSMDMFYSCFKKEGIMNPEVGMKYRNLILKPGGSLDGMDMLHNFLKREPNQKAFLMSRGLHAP
Method in brief: as §1

[5] = biological target: T5, SLC25A5 ADP/ATP translocase 2 (Homo sapiens, UniProt P05141); format: binding; settings: for isoTOP-ABPP ratio (R) at liganded lysine P05141_K23: sol, 231
T5 construct: isoTOP-ABPP experiments performed in cell lysates (in vitro); endogenous in cells; host or cells: MDA-MB-231 soluble lysate
T5 sequence (P05141 1-298): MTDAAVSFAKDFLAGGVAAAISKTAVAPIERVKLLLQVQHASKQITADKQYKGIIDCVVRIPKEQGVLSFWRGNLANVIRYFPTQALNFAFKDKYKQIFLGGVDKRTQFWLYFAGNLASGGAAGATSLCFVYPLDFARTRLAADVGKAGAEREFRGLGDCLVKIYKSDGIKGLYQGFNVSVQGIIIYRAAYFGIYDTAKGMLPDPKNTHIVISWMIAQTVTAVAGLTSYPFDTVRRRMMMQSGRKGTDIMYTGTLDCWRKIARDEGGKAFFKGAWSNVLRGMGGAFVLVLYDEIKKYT
Method in brief: as §1

R value (DMSO/fragment) for probe 1 labeling ([1]; 50 uM, 231 sol, in vitro) | R value (DMSO/fragment) for probe 1 labeling ([2]; 50 uM, 231 sol, in vitro) | R value (DMSO/fragment) for probe 1 labeling ([3]; 50 uM, 231 sol, in vitro) | R value (DMSO/fragment) for probe 1 labeling ([4]; 231 sol) | SMILES | isoTOP-ABPP ratio (R) at liganded lysine Q15233_K467 ([1]; 50 uM, in vitro) | isoTOP-ABPP ratio (R) at liganded lysine P05141_K23 ([5]; 50 uM, in vitro) | isoTOP-ABPP ratio (R) at liganded lysine P46783_K139 ([2]; 50 uM, in vitro) | isoTOP-ABPP ratio (R) at liganded lysine P60520_K46 ([3]; 50 uM, in vitro) | isoTOP-ABPP ratio (R) at liganded lysine Q9BYT8_K253 [4] | also measured
1.2 | 0.6 | 0.9 | 0.9 | O=C(Oc1c(F)c(F)c(F)c(F)c1F)C(c1ccccc1)c1ccccc1 [fragment 20, Pentafluorophenyl 2,2-diphenylacetate] |  |  |  |  |  | 
1.5 | 0.5 | 0.8 | 0.7 | O=C(Oc1c(F)c(F)c(F)c(F)c1F)c1cc(C(F)(F)F)cc(C(F)(F)F)c1 [fragment 21, Pentafluorophenyl 3,5-bis(trifluoromethyl)benzoate] |  |  |  |  |  | R value (DMSO/fragment) for probe 1 labeling ([5]; P05141_K23, 50 uM, 231 sol, in vitro): 1.7
 |  |  |  | COc1cc(CCC(=O)Oc2ccc([N+](=O)[O-])cc2[N+](=O)[O-])cc(OC)c1OC [fragment 33, 2,4-Dinitrophenyl 3-(3,4,5-trimethoxyphenyl)propanoate] |  |  |  |  |  | isoTOP-ABPP reactivity ratio at lysine Q15233_K467 ([1]; 50 uM, 231 sol, in vitro): 3.7; isoTOP-ABPP reactivity ratio at lysine P46783_K139 ([2]; 50 uM, 231 sol, in vitro): 0.7; isoTOP-ABPP reactivity ratio at lysine P60520_K46 ([3]; 50 uM, 231 sol, in vitro): 1.2; isoTOP-ABPP reactivity ratio at lysine Q9BYT8_K253 ([4]; 231 sol): 4.1
 |  |  |  | O=C(Oc1ccc([N+](=O)[O-])cc1[N+](=O)[O-])c1ccc(-c2ccccc2)cc1 [fragment 37, 2,4-Dinitrophenyl [1,1′-biphenyl]-4-carboxylate] | 0.8 | 1.2 | 0.6 | 0.8 | 0.9 | 
 |  |  |  | O=C(Oc1ccc([N+](=O)[O-])cc1[N+](=O)[O-])C(c1ccccc1)(c1ccccc1)c1ccccc1 [fragment 42, 2,4-Dinitrophenyl 2,2,2-triphenylacetate] | 2.5 | 1.1 | 1.0 | 0.9 | 0.8 | 
 |  |  |  | N#Cc1ccc(C(=O)Oc2ccc([N+](=O)[O-])cc2[N+](=O)[O-])cc1 [fragment 44, 2,4-Dinitrophenyl 4-cyanobenzoate] |  |  |  |  |  | isoTOP-ABPP ratio, lysine Q15233_K467 ([1]; 50 uM_231_sol_in vitro): 0.9; isoTOP-ABPP ratio, lysine P05141_K23 ([5]; 50 uM_231_sol_in vitro): 1.1; isoTOP-ABPP ratio, lysine P46783_K139 ([2]; 50 uM_231_sol_in vitro): 0.6; isoTOP-ABPP ratio, lysine P60520_K46 ([3]; 50 uM_231_sol_in vitro): 0.9
